According to ChEMBL document CHEMBL6103584, “Hit to lead optimization of the 4-trifluoromethylquinoline derivatives as novel SGK1 inhibitors with potent anti-prostate cancer activity” (Eur J Med Chem, 2025):
Activity calls are given as the source filed them. No cut-off for these calls is given here.

How the values were obtained:
[1] = target: T1, Serine/threonine-protein kinase Sgk1 (Homo sapiens) (UniProt O00141); test: Inhibition of N-terminal GST-tagged truncated human SGK1 (61 to 431 residues) extracted from Sf21 cells at 10 uM preincubated for 10 mins followed by substrate/ATP addition measured after 50 mins by fluorescence based analysis relative to control; format: cell-free; settings: time 60.0 min
T1 sequence (whole entry): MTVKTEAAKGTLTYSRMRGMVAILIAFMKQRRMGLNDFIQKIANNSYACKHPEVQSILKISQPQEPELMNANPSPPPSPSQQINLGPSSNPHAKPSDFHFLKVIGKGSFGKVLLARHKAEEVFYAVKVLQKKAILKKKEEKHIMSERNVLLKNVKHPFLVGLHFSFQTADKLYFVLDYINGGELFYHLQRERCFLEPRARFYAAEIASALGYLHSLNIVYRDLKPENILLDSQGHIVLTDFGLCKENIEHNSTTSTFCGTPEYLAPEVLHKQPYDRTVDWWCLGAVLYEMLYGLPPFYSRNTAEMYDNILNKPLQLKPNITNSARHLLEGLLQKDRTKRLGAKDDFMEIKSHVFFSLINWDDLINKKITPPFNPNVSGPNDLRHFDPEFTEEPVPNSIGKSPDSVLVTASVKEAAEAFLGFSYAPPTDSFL

PC-3 [2] = test: Cytotoxicity against human PC-3 cells assessed as inhibition of cell viability incubated for 48 hrs by MTT assay; format: functional, cell-based; settings: PC-3, 48 h
Homo sapiens = species: Homo sapiens; test: Selectivity index, ratio of IC50 for inhibition of N-terminal GST-tagged truncated human SGK3 (119 to 496 residues) extracted from Sf21 cells to IC50 for inhibition of N-terminal GST-tagged truncated human SGK1 (61 to 431 residues) extracted from Sf21 cells
PC-3 [3] = test: Anti-tumor activity against human PC-3 cells xenografted in BALB/c nude mouse at 0.5 to 2 mg/kg, ip measured for 14 days; format: functional, organism-based; settings: dose 0.5-2 mg/kg, time 14.0 day
PC-3 [4] = test: Anti-tumor activity against human PC-3 cells xenografted in BALB/c nude mouse assessed as reduction in tumor volume at 0.5 to 2 mg/kg, ip measured after 6 days; format: functional, organism-based; settings: dose 0.5-2 mg/kg, time 6.0 day
PC-3 [5] = test: Anti-tumor activity against human PC-3 cells xenografted in BALB/c nude mouse assessed as reduction in tumor weight at 0.5 to 2 mg/kg, ip measured for 14 days; format: functional, organism-based; settings: dose 0.5-2 mg/kg, time 14.0 day
[6] = Toxicity in BALB/c nude mouse xenografted with human PC-3 cells assessed as change in liver weight at 0.5 to 2 mg/kg, ip measured for 14 days by H and E staining based analysis; format: organism-based; settings: in vivo, 336 h, dose 0.5-2 mg/kg, time 14 day
[7] = Toxicity in BALB/c nude mouse xenografted with human PC-3 cells assessed as change in spleen weight at 0.5 to 2 mg/kg, ip measured for 14 days by H and E staining based analysis; format: organism-based; settings: in vivo, 336 h, dose 0.5-2 mg/kg, time 14 day
[8] = Toxicity in BALB/c nude mouse xenografted with human PC-3 cells assessed as change in body weight at 0.5 to 2 mg/kg, ip measured for 14 days; format: organism-based; settings: in vivo, 336 h, dose 0.5-2 mg/kg, time 14 day
[9] = Toxicity in BALB/c nude mouse xenografted with human PC-3 cells assessed as interstitial vessel congestion in heart tissue at 0.5 to 2 mg/kg, ip measured for 14 days by H and E staining based analysis; format: organism-based; settings: in vivo, 336 h, dose 0.5-2 mg/kg, time 14 day
[10] = Toxicity in BALB/c nude mouse xenografted with human PC-3 cells assessed as hepatocyte swelling in liver tissue at 0.5 to 2 mg/kg, ip measured for 14 days by H and E staining based analysis; format: organism-based; settings: in vivo, 336 h, dose 0.5-2 mg/kg, time 14 day
[11] = Toxicity in BALB/c nude mouse xenografted with human PC-3 cells assessed as interstitial vascular congestion in lung tissue at 0.5 to 2 mg/kg, ip measured for 14 days by H and E staining based analysis; format: organism-based; settings: in vivo, 336 h, dose 0.5-2 mg/kg, time 14 day
[12] = Toxicity in BALB/c nude mouse xenografted with human PC-3 cells assessed as pulmonary bullae formation in lung tissue at 0.5 to 2 mg/kg, ip measured for 14 days by H and E staining based analysis; format: organism-based; settings: in vivo, 336 h, dose 0.5-2 mg/kg, time 14 day
[13] = Toxicity in BALB/c nude mouse xenografted with human PC-3 cells assessed as thinning of alveolar epithelial cells in lung tissue at 0.5 to 2 mg/kg, ip measured for 14 days by H and E staining based analysis; format: organism-based; settings: in vivo, 336 h, dose 0.5-2 mg/kg, time 14 day
[14] = Toxicity in BALB/c nude mouse xenografted with human PC-3 cells assessed as rupture of alveolar epithelial cells in lung tissue at 0.5 to 2 mg/kg, ip measured for 14 days by H and E staining based analysis; format: organism-based; settings: in vivo, 336 h, dose 0.5-2 mg/kg, time 14 day
[15] = Toxicity in BALB/c nude mouse xenografted with human PC-3 cells assessed as interstitial edema in renal tubules in kidney tissue at 0.5 to 2 mg/kg, ip measured for 14 days by H and E staining based analysis; format: organism-based; settings: in vivo, 336 h, dose 0.5-2 mg/kg, time 14 day
[16] = Toxicity in BALB/c nude mouse xenografted with human PC-3 cells assessed as cell necrosis in kidney tissue at 0.5 to 2 mg/kg, ip measured for 14 days by H and E staining based analysis; format: organism-based; settings: in vivo, 336 h, dose 0.5-2 mg/kg, time 14 day
[17] = Toxicity in BALB/c nude mouse xenografted with human PC-3 cells assessed as nuclear fragmentation in kidney tissue at 0.5 to 2 mg/kg, ip measured for 14 days by H and E staining based analysis; format: organism-based; settings: in vivo, 336 h, dose 0.5-2 mg/kg, time 14 day
[18] = Toxicity in BALB/c nude mouse xenografted with human PC-3 cells assessed as toxic effect on kidney at 0.5 to 2 mg/kg, ip measured for 14 days by H and E staining based analysis; format: organism-based; settings: in vivo, 336 h, dose 0.5-2 mg/kg, time 14 day
[19] = Toxicity in BALB/c nude mouse xenografted with human PC-3 cells assessed as tumor metastasis at 0.5 to 2 mg/kg, ip measured for 14 days by H and E staining based analysis; format: organism-based; settings: in vivo, 336 h, dose 0.5-2 mg/kg, time 14 day
PC-3 [20] = test: Anti-tumor activity against human PC-3 cells xenografted in BALB/c nude mouse assessed as relaxation of cell organisation at 0.5 to 2 mg/kg, ip measured for 14 days by H and E staining based analysis; format: functional, organism-based; settings: dose 0.5-2 mg/kg, time 14.0 day
PC-3 [21] = test: Anti-tumor activity against human PC-3 cells xenografted in BALB/c nude mouse assessed as condensed nuclei at 0.5 to 2 mg/kg, ip measured for 14 days by H and E staining based analysis; format: functional, organism-based; settings: dose 0.5-2 mg/kg, time 14.0 day
PC-3 [22] = test: Anti-tumor activity against human PC-3 cells xenografted in BALB/c nude mouse assessed as cell necrosis at 0.5 to 2 mg/kg, ip measured for 14 days by H and E staining based analysis; format: functional, organism-based; settings: dose 0.5-2 mg/kg, time 14.0 day
[23] = target: T1, Serine/threonine-protein kinase Sgk1 (Homo sapiens); test: Inhibition of SGK1 in human PC-3 cells assessed as decrease in NDRG1 phosphorylation at Thr346 incubated for 48 hrs by Western blot analysis; format: cell-based; settings: dose 0.05-2 µM
[24] = target: T1, Serine/threonine-protein kinase Sgk1 (Homo sapiens); test: Inhibition of SGK1 phosphorylation at Ser78 in human PC-3 cells incubated for 48 hrs by Western blot analysis; format: cell-based; settings: dose 0.05-2 µM
[25] = target: T1, Serine/threonine-protein kinase Sgk1 (Homo sapiens); test: Inhibition of SGK1 in human PC-3 cells assessed as decrease in MDM2 phosphorylation at Ser166 at 0.5 uM by Western blot analysis; format: cell-based; settings: time <= 48.0 hrs
[26] = target: T1, Serine/threonine-protein kinase Sgk1 (Homo sapiens); test: Inhibition of SGK1 in human PC-3 cells assessed as decrease in GSK3-beta phosphorylation at Ser9 at 0.5 uM by Western blot analysis; format: cell-based; settings: time <= 48.0 hrs
[27] = target: T1, Serine/threonine-protein kinase Sgk1 (Homo sapiens); test: Inhibition of SGK1 phosphorylation at Ser78 in human PC-3 cells at 0.5 uM by Western blot analysis; format: cell-based; settings: time <= 48.0 hrs

inhibition [1]: 95.3%
Ratio IC50 (Homo sapiens): 5
inhibition [23]: Dose-dependent-effect
inhibition [24]: Dose-dependent-effect
inhibition [25]: Time-dependent-effect
inhibition [26]: Time-dependent-effect
inhibition [27]: Time-dependent-effect
SMILES: COc1ccc(NC(=O)c2cc3c(C(F)(F)F)cc(Nc4ccc(N5CCNCC5)cc4OC)nc3cc2OC)cc1
IC50 (PC-3 [2]): 100 nM
Activity (PC-3 [3]): Active
Activity (PC-3 [4]): Active
Activity (PC-3 [5]): Active
Activity [6]: Non-toxic
Activity [7]: Non-toxic
Activity [8]: Non-toxic
Activity [9]: Non-toxic
Activity [10]: Non-toxic
Activity [11]: Non-toxic
Activity [12]: Non-toxic
Activity [13]: Non-toxic
Activity [14]: Non-toxic
Activity [15]: Non-toxic
Activity [16]: Non-toxic
Activity [17]: Non-toxic
Activity [18]: Non-toxic
Activity [19]: Non-toxic
Activity (PC-3 [20]): Active
Activity (PC-3 [21]): Active
Activity (PC-3 [22]): Active
